Drawing on paper PMC5552782, “Crystal Structure of MpPR-1i, a SCP/TAPS protein from Moniliophthora perniciosa, the fungus that causes Witches’ Broom Disease of Cacao” (Scientific Reports, 2017), this text covers Kd for one compound.

The target in this assay is T1, MpPR-1i (Moniliophthora perniciosa, UniProt H6U756).
T1 construct: gene PR-1i; signal peptide removed; cDNA from green broom stage; modified pET SUMO, E. coli SHuffle; His-SUMO tag cut with ULP-1; untagged; monomer
Kind of assay: radioligand binding, Q-sepharose capture, scintillation counting.

T1 sequence (H6U756 entry or part of it): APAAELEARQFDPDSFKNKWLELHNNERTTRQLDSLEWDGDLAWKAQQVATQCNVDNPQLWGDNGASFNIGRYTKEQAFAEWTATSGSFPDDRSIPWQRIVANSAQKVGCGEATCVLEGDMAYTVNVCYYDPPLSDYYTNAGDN

`CCCCCCCCCCCCCCCC(=O)O` [palmitic acid] returned a Kd of 107 µM.
